Biological target: T1, full length G2019 human LRRK2 (Homo sapiens, UniProt Q5S007, R50H)
T1 construct: made in house; host or cells: HEK293 6E cells transduced with BacMam virus (virus generated in Sf9 cells)
Test: Full length G2019 human LRRK2 inhibition mass spectrometry assay
Assay type: biochemical
Details: LRRKtide to phospho-LRRKtide conversion, RapidFire MS, 2 mM ATP
Description: a. Full Length G2019 Human LRRK2 Inhibition Mass Spectrometry Assay
This assay for Leucine Rich Repeat Kinase 2 (LRRK2) inhibition is based on the direct measurement of the peptide ‘LRRKtide’ (LRRKtide: RLGRDKYKT*LRQIRQ and “*” refers to the site of phosphorylation.) and phosphorylated ‘LRRKtide’ using a high throughput Rapid Fire mass spectrometry assay. Inhibitors are compounds that reduce the conversion of LRRKtide to phospho-LRRKtide.
• 1) Compounds were dissolved in 100% DMSO at a concentration of 10 mM, and 11-point dose response curves generated using a 1 in 4 serial dilution in DMSO. 100 nL of this dilution series was then added to a 384 well, v bottom polypropylene plate (Greiner 781280), excluding columns 6 and 18. 100 nL of DMSO were added to column 6 to serve as the high control, while column 18 served as the low control containing assay buffer in place of the LRRK2 protein. Assay dilution gave a top final assay concentration of test compound of […] • 2) 5 μL of ‘enzyme solution’ containing 2× final assay concentration of purified recombinant Full length Flag-LRRK2 in assay buffer (50 mM Hepes, pH 7.2, 10 mM MgCl2, 150 mM NaCl, 5% glycerol, 0.0025% Triton X-100 and 1 mM DTT) were added to all wells using a Multidrop Combi dispenser (ThermoFisher Scientifiec), giving a final assay concentration of 25 nM LRRK2 enzyme (final concentration may vary depending on specific activity of different enzyme batches). • 3) 5 μL of substrate solution containing 50 μM LRRKtide peptide substrate and […] was added to all wells of the plate using a Multidrop Combi dispenser giving a final assay concentration of 25 μM LRRKtide peptide and 2 mM ATP. Test plates were then incubated for 1 hour at room temperature. (Incubation may vary depending on rate and linearity of reaction with different enzyme batches). • 4) 50 μl of 1% formic acid in laboratory grade water was added to all wells to quench the reaction, and plates were heat-sealed prior to centrifugation at 1348×g for 10 minutes. Test plates were then analysed on an Agilent RapidFire High Throughput solid phase extraction system coupled to AB Sciex API 4000 triple quadropole mass spectrometer with the following setting:
• Sip Height=2 mm, Aspirate=500 ms, Load time=3000 ms, Elution time=3000 ms, Requilibration=500 ms. • Flow rates: pump 1=1.5 mL/min, pump 2 1.25 mL/min pump 3=0.8 mL/min
Mass Spectrometer Settings: • LRRKtide Detection settings: Q1 mass 644.8 Da, Q3 mass 638.8, declustering potential 76 volts, collision energy 37 volts, CXP 34 volts. • Phospho-LRRKtide Detection settings: Q1 mass 671.4 Da, Q3 mass 638.8, Declustering potential 76 volts, Collision energy 37 volts, CXP 34 volts. • A C4 cartridge was used and running buffers were: A (aqueous) 0.1% formic acid in water B (organic) 0.1% formic acid, 80% acetonitrile, 20% water. • Collision gas: 12, Curtain gas: 25, Ion Source gas (1): 60, Ion Source gas (2): 60, Ion Spray Voltage: 5500, Temperature: 600, Interface Heater: ON. • Resolution Q1: low, Resolution Q3: low. • 5) Data were analysed using ActivityBase software (IDBS). A percent conversion from LRRKtide to Phospho-LRRKtide was calculated using the following formula:
% conversion=(Phospho-LRRKtide product peak area/(Phospho-LRRKtide product peak area+LRRKtide substrate peak area))*100 • A logistic 4 parameter curve fit was applied, using the following formula,
[formula] • Where x is the concentration of test sample, y is inhibition (%), a is the minimum, b is the Hill slope, c is the IC50 and d is the maximum. From this, the pIC50 was derived (−log IC50).

T1 sequence (Q5S007 with tags, fused parts or gaps R50H): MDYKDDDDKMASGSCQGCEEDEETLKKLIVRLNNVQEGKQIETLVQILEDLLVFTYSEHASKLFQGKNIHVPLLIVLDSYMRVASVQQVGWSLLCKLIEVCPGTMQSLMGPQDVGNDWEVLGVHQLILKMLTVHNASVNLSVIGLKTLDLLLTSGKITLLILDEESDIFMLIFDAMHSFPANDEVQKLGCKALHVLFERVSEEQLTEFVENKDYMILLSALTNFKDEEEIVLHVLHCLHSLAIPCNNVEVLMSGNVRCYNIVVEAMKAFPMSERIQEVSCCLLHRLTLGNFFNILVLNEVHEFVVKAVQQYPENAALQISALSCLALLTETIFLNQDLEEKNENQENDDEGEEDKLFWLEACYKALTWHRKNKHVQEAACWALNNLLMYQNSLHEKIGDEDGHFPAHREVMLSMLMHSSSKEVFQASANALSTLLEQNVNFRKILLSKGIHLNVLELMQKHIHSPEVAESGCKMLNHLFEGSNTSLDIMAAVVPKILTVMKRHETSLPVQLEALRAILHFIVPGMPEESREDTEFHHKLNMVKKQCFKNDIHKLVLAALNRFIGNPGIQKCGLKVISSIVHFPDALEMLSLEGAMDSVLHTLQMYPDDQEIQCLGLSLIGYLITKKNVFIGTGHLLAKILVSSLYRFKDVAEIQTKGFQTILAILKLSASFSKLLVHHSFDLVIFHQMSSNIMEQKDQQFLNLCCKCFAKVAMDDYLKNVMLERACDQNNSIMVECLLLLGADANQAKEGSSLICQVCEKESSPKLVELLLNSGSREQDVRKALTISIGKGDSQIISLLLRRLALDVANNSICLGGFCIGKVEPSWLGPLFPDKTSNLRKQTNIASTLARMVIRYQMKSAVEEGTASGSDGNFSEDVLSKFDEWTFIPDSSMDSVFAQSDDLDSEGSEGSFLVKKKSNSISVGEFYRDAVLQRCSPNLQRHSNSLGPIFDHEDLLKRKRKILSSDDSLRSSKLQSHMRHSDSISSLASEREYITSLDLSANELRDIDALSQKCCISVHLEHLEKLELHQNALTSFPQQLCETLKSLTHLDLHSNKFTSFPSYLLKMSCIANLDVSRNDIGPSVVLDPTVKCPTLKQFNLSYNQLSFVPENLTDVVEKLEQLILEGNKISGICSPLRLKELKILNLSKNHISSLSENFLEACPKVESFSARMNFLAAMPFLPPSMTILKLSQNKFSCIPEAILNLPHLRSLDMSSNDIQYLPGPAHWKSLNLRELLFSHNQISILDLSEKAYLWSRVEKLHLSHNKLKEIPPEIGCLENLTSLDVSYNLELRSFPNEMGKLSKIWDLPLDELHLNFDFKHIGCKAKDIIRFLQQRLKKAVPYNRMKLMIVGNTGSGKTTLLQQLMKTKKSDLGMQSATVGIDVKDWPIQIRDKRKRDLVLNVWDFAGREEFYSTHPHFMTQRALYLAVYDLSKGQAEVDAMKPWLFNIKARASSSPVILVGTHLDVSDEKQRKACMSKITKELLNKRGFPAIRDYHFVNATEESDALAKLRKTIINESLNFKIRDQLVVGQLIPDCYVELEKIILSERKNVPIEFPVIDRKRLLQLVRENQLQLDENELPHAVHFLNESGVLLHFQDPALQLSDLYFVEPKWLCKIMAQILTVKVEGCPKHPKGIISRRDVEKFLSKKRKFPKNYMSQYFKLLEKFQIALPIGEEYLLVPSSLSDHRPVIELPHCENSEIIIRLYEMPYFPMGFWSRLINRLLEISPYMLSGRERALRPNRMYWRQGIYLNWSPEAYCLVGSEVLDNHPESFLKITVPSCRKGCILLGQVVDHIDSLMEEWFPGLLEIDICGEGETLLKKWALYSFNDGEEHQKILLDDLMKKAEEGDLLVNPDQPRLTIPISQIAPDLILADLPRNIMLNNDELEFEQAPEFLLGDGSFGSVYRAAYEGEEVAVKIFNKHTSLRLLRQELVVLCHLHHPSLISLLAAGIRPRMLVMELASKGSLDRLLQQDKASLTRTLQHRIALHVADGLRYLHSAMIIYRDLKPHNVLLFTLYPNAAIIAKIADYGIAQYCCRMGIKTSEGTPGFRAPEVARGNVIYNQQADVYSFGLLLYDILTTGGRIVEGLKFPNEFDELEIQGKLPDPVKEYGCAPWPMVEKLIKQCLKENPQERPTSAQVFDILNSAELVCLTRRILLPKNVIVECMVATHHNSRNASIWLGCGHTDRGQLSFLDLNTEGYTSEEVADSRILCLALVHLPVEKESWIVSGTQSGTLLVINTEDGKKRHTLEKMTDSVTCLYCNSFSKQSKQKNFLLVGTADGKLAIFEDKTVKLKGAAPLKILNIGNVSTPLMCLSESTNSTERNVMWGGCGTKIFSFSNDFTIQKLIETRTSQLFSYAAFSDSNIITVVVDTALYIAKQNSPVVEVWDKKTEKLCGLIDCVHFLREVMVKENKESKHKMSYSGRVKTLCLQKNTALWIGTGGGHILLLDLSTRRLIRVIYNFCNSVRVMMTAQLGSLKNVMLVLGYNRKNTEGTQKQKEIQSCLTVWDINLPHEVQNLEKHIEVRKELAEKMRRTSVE

SMILES | IC50
Cc1c2c(nn1CCN1C[C@H]3C[C@@H]1CO3)OCCC(C)Nc1nc(ncc1Cl)N2 (single isomer, unassigned) [E211] | ≤ 10 µM
Cc1c2c(nn1CCN1CCOCC1)OCCC(C)Nc1nc(ncc1Cl)N2 (single isomer, unassigned) [E212, 14-Chloro-4,11-dimethyl-5-[2-(morpholin-4-yl)ethyl]-8-oxa-2,5,6,12,16,17-hexaazatricyclo[11.3.1.0^3,7] heptadeca-1(16),3,6,13(17),14-pentaene] | ≤ 10 µM
Cc1c2c(nn1CCN1CCC(F)(F)C1)OCCC(C)Nc1nc(ncc1Cl)N2 (single isomer, unassigned) [E214, 14-Chloro-5-[2-(3,3-difluoropyrrolidin-1-yl)ethyl]-4,11-dimethyl-8-oxa-2,5,6,12,16,17-hexaazatricyclo [11.3.1.0^3,7]heptadeca-1(16),3,6,13(17),14-pentaene] | ≤ 10 µM
Cc1c2c(nn1CCN1CCC(F)C1)OCCC(C)Nc1nc(ncc1Cl)N2 (single isomer, unassigned) [E216, 14-Chloro-5-[2-(3-fluoropyrrolidin-1-yl)ethyl]-4,11-dimethyl-8-oxa-2,5,6,12,16,17-hexaazatricyclo [11.3.1.0^3,7] heptadeca-1(16),3,6,13(17),14-pentaene] | 100 µM
Cc1c2c(nn1CCN1CCC(F)C1)OCCC(C)Nc1nc(ncc1Cl)N2 (single isomer, unassigned) [E217, 14-Chloro-5-[2-(3-fluoropyrrolidin-1-yl)ethyl]-4,11-dimethyl-8-oxa-2,5,6,12,16,17-hexaazatricyclo [11.3.1.0^3,7] heptadeca-1(16),3,6,13(17),14-pentaene] | ≤ 10 µM
COC1CNc2nc(ncc2C(F)(F)F)Nc2c(nn(C3CCCOC3)c2C)OC1 (single isomer, unassigned) [E228, 10-Methoxy-4-methyl-5-(oxan-3-yl)-14-(trifluoromethyl)-8-oxa-2,5,6,12,16,17-hexaazatricyclo [11.3.1.0^3,7] heptadeca-1(17),3,6,13,15-pentaene] | ≤ 10 µM
Cc1c2c(nn1C1CCOCC1F)OCCCNc1nc(ncc1Cl)N2 (single isomer, unassigned) [E236, 14-Chloro-5-(3-fluorooxan-4-yl)-4-methyl-8-oxa-2,5,6,12,16,17-hexaazatricyclo[11.3.1.0^3,7]heptadeca-1(16),3,6,13 (17),14-pentaene] | ≤ 0.1 µM
Cc1c2c(nn1C1CC3CCC(C1)O3)OCCCNc1nc(ncc1Cl)N2 (single isomer, unassigned) [E244, 14-Chloro-4-methyl-5-{8-oxabicyclo[3.2.1]octan-3-yl}-8-oxa-2,5,6,12,16,17-hexaazatricyclo[11.3.1.0^3,7] heptadeca-1(16),3,6,13(17),14-pentaene] | ≤ 0.1 µM
COC1CNc2nc(ncc2Cl)Nc2c(nn(C3CC4CCC(C3)O4)c2C)OC1 (single isomer, unassigned) [E246, 14-Chloro-10-methoxy-4-methyl-5-{8-oxabicyclo[3.2.1]octan-3-yl}-8-oxa-2,5,6,12,16,17-hexaazatricyclo [11.3.1.0^3,7]heptadeca-1(16),3,6,13(17),14-pentaene] | ≤ 10 µM
Cc1c2c(nn1C1CC3CCC(C1)O3)OCCC(C)Nc1nc(ncc1Cl)N2 (single isomer, unassigned) [E250, 14-Chloro-4,11-dimethyl-5-{8-oxabicyclo[3.2.1]octan-3-yl}-8-oxa-2,5,6,12,16,17-hexaazatricyclo[11.3.1.0^3,7] heptadeca-1(16),3,6,13(17),14-pentaene] | ≤ 10 µM
Cc1c2c(nn1C1CC3CCC(C1)O3)OCCC(C)Nc1nc(ncc1Cl)N2 (single isomer, unassigned) [E251, 14-Chloro-4,11-dimethyl-5-{8-oxabicyclo[3.2.1]octan-3-yl}-8-oxa-2,5,6,12,16,17-hexaazatricyclo[11.3.1.0^3,7] heptadeca-1(16),3,6,13(17),14-pentaene] | ≤ 0.1 µM
Cc1c2c(nn1C1CCC(C)CC1)OCCCNc1nc(ncc1Cl)N2 (single isomer, unassigned) [E258, 14-Chloro-4-methyl-5-(4-methylcyclohexyl)-8-oxa-2,5,6,12,16,17-hexaazatricyclo[11.3.1.0^3,7]heptadeca-1(16),3,6,13 (17),14-pentaene] | ≤ 0.1 µM
Cc1c2c(nn1C1CCC(C)CC1)OCCC(C)Nc1nc(ncc1Cl)N2 (single isomer, unassigned) [E260, 14-Chloro-4,11-dimethyl-5-(4-methylcyclohexyl)-8-oxa-2,5,6,12,16,17-hexaazatricyclo[11.3.1.0^3,7] heptadeca-1(16),3,6,13(17),14-pentaene] | ≤ 0.1 µM
Cc1c2c(nn1C1CCC(C)CC1)OCCC(C)Nc1nc(ncc1Cl)N2 (single isomer, unassigned) [E261, 14-Chloro-4,11-dimethyl-5-(4-methylcyclohexyl)-8-oxa-2,5,6,12,16,17-hexaazatricyclo[11.3.1.0^3,7] heptadeca-1(16),3,6,13(17),14-pentaene] | ≤ 10 µM
Cc1c2c(nn1C1CCC(C)CC1)OCCC(C)Nc1nc(ncc1Cl)N2 (single isomer, unassigned) [E262, 14-Chloro-4,11-dimethyl-5-(4-methylcyclohexyl)-8-oxa-2,5,6,12,16,17-hexaazatricyclo[11.3.1.0^3,7] heptadeca-1(16),3,6,13(17),14-pentaene] | ≤ 10 µM
Cc1c2c(nn1CC(C)(C)O)OCCC(C)Nc1nc(ncc1Cl)N2 (single isomer, unassigned) [E264, 1-{14-Chloro-4,11-dimethyl-8-oxa-2,5,6,12,16,17-hexaazatricyclo[11.3.1.0^3,7]heptadeca-1(17),3,6,13,15-pentaen-5-yl}-2-methylpropan-2-ol] | ≤ 10 µM
COC1CNc2nc(ncc2Cl)Nc2c(nn(C3COC3)c2C)OC1 (single isomer, unassigned) [E271, 14-Chloro-10-methoxy-4-methyl-5-(oxetan-3-yl)-8-oxa-2,5,6,12,16,17-hexaazatricyclo[11.3.1.0^3,7]heptadeca-1(16),3,6,13(17),14-pentaene] | ≤ 10 µM
COC1CNc2nc(ncc2Cl)Nc2c(nn(CC3(C)COC3)c2C)OC1 (single isomer, unassigned) [E272, 14-Chloro-10-methoxy-4-methyl-5-[(3-methyloxetan-3-yl)methyl]-8-oxa-2,5,6,12,16,17-hexaazatricyclo [11.3.1.0^3,7]heptadeca-1(16),3,6,13(17),14-pentaene] | ≤ 0.1 µM
COC1CNc2nc(ncc2Cl)Nc2c(nn(CC3(C)COC3)c2C)OC1 (single isomer, unassigned) [E273, 14-Chloro-10-methoxy-4-methyl-5-[(3-methyloxetan-3-yl)methyl]-8-oxa-2,5,6,12,16,17-hexaazatricyclo [11.3.1.0^3,7]heptadeca-1(16),3,6,13(17),14-pentaene] | ≤ 10 µM
COC1CNc2nc(ncc2Cl)Nc2c(nn(CC3CCOCC3)c2C)OC1 (single isomer, unassigned) [E275, 14-Chloro-10-methoxy-4-methyl-5-(oxan-4-ylmethyl)-8-oxa-2,5,6,12,16,17-hexaazatricyclo[11.3.1.0^3,7] heptadeca-1(16),3,6,13(17),14-pentaene] | ≤ 10 µM
COC1CNc2nc(ncc2Cl)Nc2c(nn(C3CCC(C(F)(F)F)CC3)c2C)OC1 (single isomer, unassigned) [E279, 14-Chloro-10-methoxy-4-methyl-5-[4-(trifluoromethyl)cyclohexyl]-8-oxa-2,5,6,12,16,17-hexaazatricyclo [11.3. 1.0^3,7]heptadeca-1(16),3,6,13(17),14-pentaene] | ≤ 10 µM

— patent US20200392158A1, “INHIBITORS OF LEUCINE RICH REPEAT KINASE 2” (GLAXOSMITHKLINE INTELLECTUAL PROPERTY DEVELOPMENT LIMITED, priority 2017, published 2020)
